Measurements taken from article PMC8860572 (Nucleic Acids Research, 2022).
Entries after “also recorded” stand apart in the source; their conditions may differ.

Target: nsp14–nsp10 co-incubated with nsp8 (Severe acute respiratory syndrome coronavirus 2, UniProt P0DTD1)
Experiment: gel-based nuclease inhibition assay with nsp8 stimulation
Type: biochemical, SARS-CoV-2
Settings: 100 nM nsp14-nsp10 and 300 nM nsp8, compound 3-100 μM

Compound	inhibition of nuclease activity in presence of nsp8
COc1cc2c3c(cccc3c1)C(=O)N(O)C2=O [A-2]	inhibition was still observed, albeit at higher inhibitor concentrations
O=C(O)c1nc(-c2ccccc2)nc(O)c1O [B-1, 5,6-Dihydroxyl-2-phenylpyrimidine-4-carboxylic acid]	inhibition was still observed, albeit at higher inhibitor concentrations
O=c1c2ccccc2[se]n1-c1ccccc1 [ebselen, reference compound]	inhibition was still observed, albeit at higher inhibitor concentrations

Target: nsp14–nsp10 (Severe acute respiratory syndrome coronavirus 2, UniProt P0DTD1)
Experiment: not given
Type: binding, SARS-CoV-2
Settings: 3.1 µM compound, 1 µM nsp14-10

Compound	ΔTm
COc1ccc2c3c(cccc13)C(=O)N(O)C2=O [A-1]	0.02 °C
COc1cc2c3c(cccc3c1)C(=O)N(O)C2=O [A-2]	0.01 °C
O=c1[nH]c2ccccc2c(=O)n1O [A-3]	-0.10 °C
O=c1c2ccccc2n(Cc2ccccc2)c(=O)n1O [A-4]	-0.06 °C
O=c1c2ccccc2[nH]c(=S)n1O [A-5, 3-Hydroxy-2-thioxo-2,3-dihydroquinazolin-4-one]	0.00 °C
O=C(O)C1=CC(=C(c2ccc(O)c(C(=O)O)c2)c2ccc(O)c(C(=O)O)c2)C=CC1=O [ATA, Aurintricarboxylic acid, reference compound]	0.33 °C
O=C(O)c1nc(-c2ccccc2)nc(O)c1O [B-1, 5,6-Dihydroxyl-2-phenylpyrimidine-4-carboxylic acid]	-0.15 °C
CCN(CC)C(=S)SSC(=S)N(CC)CC [disulfiram, reference compound]	-0.53 °C
CN(C)C(=S)SSC(=S)N(C)C [thiram, reference compound]	-0.53 °C

Same assay, conditions: 6.3 µM compound, 1 µM nsp14-10

Compound	ΔTm
COc1ccc2c3c(cccc13)C(=O)N(O)C2=O [A-1]	0.31 °C
COc1cc2c3c(cccc3c1)C(=O)N(O)C2=O [A-2]	0.26 °C
O=c1[nH]c2ccccc2c(=O)n1O [A-3]	0.13 °C
O=c1c2ccccc2n(Cc2ccccc2)c(=O)n1O [A-4]	0.11 °C
O=c1c2ccccc2[nH]c(=S)n1O [A-5, 3-Hydroxy-2-thioxo-2,3-dihydroquinazolin-4-one]	0.24 °C
O=C(O)C1=CC(=C(c2ccc(O)c(C(=O)O)c2)c2ccc(O)c(C(=O)O)c2)C=CC1=O [ATA, Aurintricarboxylic acid, reference compound]	0.27 °C
O=C(O)c1nc(-c2ccccc2)nc(O)c1O [B-1, 5,6-Dihydroxyl-2-phenylpyrimidine-4-carboxylic acid]	0.02 °C
CCN(CC)C(=S)SSC(=S)N(CC)CC [disulfiram, reference compound]	-0.58 °C
CN(C)C(=S)SSC(=S)N(C)C [thiram, reference compound]	-0.46 °C

Same assay, conditions: 12.5 µM compound, 1 µM nsp14-10

Compound	ΔTm
COc1ccc2c3c(cccc13)C(=O)N(O)C2=O [A-1]	0.25 °C
COc1cc2c3c(cccc3c1)C(=O)N(O)C2=O [A-2]	0.22 °C
O=c1[nH]c2ccccc2c(=O)n1O [A-3]	0.31 °C
O=c1c2ccccc2n(Cc2ccccc2)c(=O)n1O [A-4]	0.27 °C
O=c1c2ccccc2[nH]c(=S)n1O [A-5, 3-Hydroxy-2-thioxo-2,3-dihydroquinazolin-4-one]	0.19 °C
O=C(O)C1=CC(=C(c2ccc(O)c(C(=O)O)c2)c2ccc(O)c(C(=O)O)c2)C=CC1=O [ATA, Aurintricarboxylic acid, reference compound]	0.85 °C
O=C(O)c1nc(-c2ccccc2)nc(O)c1O [B-1, 5,6-Dihydroxyl-2-phenylpyrimidine-4-carboxylic acid]	0.08 °C
CCN(CC)C(=S)SSC(=S)N(CC)CC [disulfiram, reference compound]	-0.13 °C
CN(C)C(=S)SSC(=S)N(C)C [thiram, reference compound]	-0.22 °C

Same assay, conditions: 25 µM compound, 1 µM nsp14-10

Compound	ΔTm
COc1ccc2c3c(cccc13)C(=O)N(O)C2=O [A-1]	0.17 °C
COc1cc2c3c(cccc3c1)C(=O)N(O)C2=O [A-2]	0.21 °C
O=c1[nH]c2ccccc2c(=O)n1O [A-3]	1.33 °C
O=c1c2ccccc2n(Cc2ccccc2)c(=O)n1O [A-4]	-1.33 °C
O=c1c2ccccc2[nH]c(=S)n1O [A-5, 3-Hydroxy-2-thioxo-2,3-dihydroquinazolin-4-one]	0.00 °C
O=C(O)C1=CC(=C(c2ccc(O)c(C(=O)O)c2)c2ccc(O)c(C(=O)O)c2)C=CC1=O [ATA, Aurintricarboxylic acid, reference compound]	3.08 °C
O=C(O)c1nc(-c2ccccc2)nc(O)c1O [B-1, 5,6-Dihydroxyl-2-phenylpyrimidine-4-carboxylic acid]	-0.57 °C
CCN(CC)C(=S)SSC(=S)N(CC)CC [disulfiram, reference compound]	-0.42 °C
CN(C)C(=S)SSC(=S)N(C)C [thiram, reference compound]	-0.42 °C

Same assay, conditions: 50 µM compound, 1 µM nsp14-10

Compound	ΔTm
COc1ccc2c3c(cccc13)C(=O)N(O)C2=O [A-1]	0.29 °C
COc1cc2c3c(cccc3c1)C(=O)N(O)C2=O [A-2]	0.36 °C
O=c1[nH]c2ccccc2c(=O)n1O [A-3]	0.36 °C
O=c1c2ccccc2n(Cc2ccccc2)c(=O)n1O [A-4]	0.35 °C
O=c1c2ccccc2[nH]c(=S)n1O [A-5, 3-Hydroxy-2-thioxo-2,3-dihydroquinazolin-4-one]	0.38 °C
O=C(O)c1nc(-c2ccccc2)nc(O)c1O [B-1, 5,6-Dihydroxyl-2-phenylpyrimidine-4-carboxylic acid]	0.23 °C
CCN(CC)C(=S)SSC(=S)N(CC)CC [disulfiram, reference compound]	-0.40 °C
CN(C)C(=S)SSC(=S)N(C)C [thiram, reference compound]	-0.43 °C

Same assay, conditions: 100 µM compound, 1 µM nsp14-10

Compound	ΔTm
COc1ccc2c3c(cccc13)C(=O)N(O)C2=O [A-1]	0.60 °C
O=c1c2ccccc2n(Cc2ccccc2)c(=O)n1O [A-4]	0.62 °C
O=c1c2ccccc2[nH]c(=S)n1O [A-5, 3-Hydroxy-2-thioxo-2,3-dihydroquinazolin-4-one]	0.61 °C
O=C(O)c1nc(-c2ccccc2)nc(O)c1O [B-1, 5,6-Dihydroxyl-2-phenylpyrimidine-4-carboxylic acid]	0.46 °C
CCN(CC)C(=S)SSC(=S)N(CC)CC [disulfiram, reference compound]	0.33 °C
CN(C)C(=S)SSC(=S)N(C)C [thiram, reference compound]	-0.21 °C

Same assay, conditions: 3.1-100 µM compound

Compound	effect on thermal stability / aggregation of nsp14–nsp10 (words)
O=C(O)C1=CC(=C(c2ccc(O)c(C(=O)O)c2)c2ccc(O)c(C(=O)O)c2)C=CC1=O [ATA, Aurintricarboxylic acid, reference compound]	destabilizing effect on thermal stability of nsp14–nsp10

Same assay, conditions: 3.1-100 µM compound; listed as aurintricarboxylic acid

Compound	effect on thermal stability / aggregation of nsp14–nsp10 (words)
O=C(O)C1=CC(=C(c2ccc(O)c(C(=O)O)c2)c2ccc(O)c(C(=O)O)c2)C=CC1=O [ATA, Aurintricarboxylic acid, reference compound]	appears to aggregate the protein at high concentration

Tested on: SARS-CoV-2
Experiment: not given
Settings: cited from earlier work

Compound	antiviral activity in cell-based assays
O=c1c2ccccc2[se]n1-c1ccccc1 [ebselen, reference compound]	exhibited antiviral activity in cell-based assays
Cc1nnc(C(=O)NC(C)(C)c2nc(C(=O)NCc3ccc(F)cc3)c(O)c(=O)n2C)o1 [raltegravir, reference compound]	did not

Target: guanine N7 methyl transferase (MTase) activity of nsp14–nsp10 (Severe acute respiratory syndrome coronavirus 2, UniProt P0DTD1)
Experiment: HTRF methyltransferase assay
Type: biochemical, SARS-CoV-2
Settings: 2.5, 5 and 10 μM compound; 10 nM nsp14-nsp10, 5 μM SAM, 0.14 mM GP3G

Compound	MTase inhibition
COc1cc2c3c(cccc3c1)C(=O)N(O)C2=O [A-2]	demonstrated MTase inhibition activity
O=C(O)c1nc(-c2ccccc2)nc(O)c1O [B-1, 5,6-Dihydroxyl-2-phenylpyrimidine-4-carboxylic acid]	demonstrated MTase inhibition activity; also recorded: most potent compound
O=c1c2ccccc2[se]n1-c1ccccc1 [ebselen, reference compound]	demonstrated MTase inhibition activity

Target: SARS-CoV-2 nsp14–nsp10 RNase activity (Severe acute respiratory syndrome coronavirus 2, UniProt P0DTD1)
Experiment: not given
Type: biochemical
Settings: not given

Compound	effect on RNase activity of nsp14–nsp10
[Mn+2] [manganese]	promoted the RNase activity
[Cl-].[Cl-].[Zn+2] [zinc]	inhibitory

Same assay, conditions: 125 nM (ions) or 250 nM (chelators) nsp14-nsp10; ions 0.05-10 mM, chelators 0.03-1 mM

Compound	effect on RNase activity of nsp14–nsp10
O=C(O)CN(CCOCCOCCN(CC(=O)O)CC(=O)O)CC(=O)O [EGTA, ethylene glycol-bis (b-aminoethyl ether)-N,N,N’,N’-tetraacetic acid, reference compound]	inhibitory
[Mg] [magnesium]	promoted the RNase activity
c1cnc2c(c1)ccc1cccnc12 [o-phenanthroline, reference compound]	inhibitory

Target: SARS-CoV-2 nsp14–nsp10 complex (nuclease activity) (Severe acute respiratory syndrome coronavirus 2, UniProt P0DTD1)
Experiment: biochemical
Settings: not given

Compound	Level of inhibition
O=c1c2ccccc2[se]n1-c1ccccc1 [ebselen, reference compound]	Yes

Same assay, conditions: 100 nM nsp14–nsp10, 10 nM 20-mer ssRNA, 37°C 45 min; […]; approximate/preliminary

Compound	IC50	IC50 value
COc1cc2c3c(cccc3c1)C(=O)N(O)C2=O [A-2]	20.7 ± 0.5 µM	
O=c1c2ccccc2n(Cc2ccccc2)c(=O)n1O [A-4]	94.1 ± 27 µM	
O=c1c2ccccc2[nH]c(=S)n1O [A-5, 3-Hydroxy-2-thioxo-2,3-dihydroquinazolin-4-one]		incomplete inhibition
O=C(O)c1nc(-c2ccccc2)nc(O)c1O [B-1, 5,6-Dihydroxyl-2-phenylpyrimidine-4-carboxylic acid]	32.2 ± 4.5 µM	
Cc1ccc(-n2sc3ccccc3c2=O)cc1 [PBIT, reference compound]		IC50 not reached under assay conditions
Cc1nnc(C(=O)NC(C)(C)c2nc(C(=O)NCc3ccc(F)cc3)c(O)c(=O)n2C)o1 [raltegravir, reference compound]	24.4 ± 2.7 µM	
CN(C)C(=S)SSC(=S)N(C)C [thiram, reference compound]	48.2 ± 1.8 µM	

Same assay, conditions: 100 nM nsp14–nsp10, compound up to 100 μM

Compound	inhibition of substrate digestion in gel-based assay
COc1ccc2c3c(cccc13)C(=O)N(O)C2=O [A-1]	qualitatively complete inhibition of substrate digestion
COc1cc2c3c(cccc3c1)C(=O)N(O)C2=O [A-2]	qualitatively complete inhibition of substrate digestion

Same assay, conditions: Supplementary Table 2; in vitro inhibition of nsp14-nsp10 nuclease activity, result in words

Compound	Level of inhibition
COc1cc2c3c(cccc3c1)C(=O)N(O)C2=O [A-2]	Yes
O=c1c2ccccc2n(Cc2ccccc2)c(=O)n1O [A-4]	Yes
O=C(O)C1=CC(=C(c2ccc(O)c(C(=O)O)c2)c2ccc(O)c(C(=O)O)c2)C=CC1=O [ATA, Aurintricarboxylic acid, reference compound]	Yes
O=C(O)c1nc(-c2ccccc2)nc(O)c1O [B-1, 5,6-Dihydroxyl-2-phenylpyrimidine-4-carboxylic acid]	Yes
CN(C)C(=S)SSC(=S)N(C)C [thiram, reference compound]	Yes
